{"source": "patent US5849557A", "about": "“Oxidized phospholipid degrading enzyme and gene thereof” (Suntory Limited, priority 1993, dated 1998)", "molecules": {"B1": {"name": "45 kDa subunit of the oxidized phospholipid degrading enzyme (other)", "chain": "VLSQRQRDELNRAIADYLRSNGYEEAYSVFKKEAELDMNEELDKKYAGLLEKKWTSVIRLQKKVMELESKLNEAKEEFTSGGPLGQKRDPKEWIPRPPEKYALSGHRSPVTRVIFHPVFSVMVSASEDATIKVWDYETGDFERTLKGHTDSVQDISFDHSGKLLASCSADMTIKLWDFQGFECIRTMHGHDHNVSSVAIMPNGDHIVSASRDKTIKMWEVQTGYCVKTFTGHREWVRMVRPNQDGTLIASCSNDQTVRVWVVATKECKAELREHEHVVECISWAPESSYSSISEATGSETKKSGKPGPFLLSGSRDKTIKMWDVSTGMCLMTLVGHDNWVRGVLFHSGGKFILSCADDKTLRVWDYKNKRCMKTLNAHEHFVTSLDFHKTAPYVVTGSVDQTVKVWECR"}, "B2": {"name": "29 kDa subunit of the oxidized phospholipid degrading enzyme (enzyme)", "chain": "SGDENPASKPTPVQDVQGDGRWMSLHHRFVADSKDKEPEVVFIGDSLVQLMHQCEIWRELFSPLHALNFGIGGDSTQHVLWRLENGELEHIRPKIVVVWVGTNNHGHTAEQVTGGIKAIVQLVNERQPQARVVVLGLLPRGQHPTQLREKNRRVNELVRAALAGHPRAHFLDADPGFVHSDGTISHHDMYDYLHLSRLGYTPVCRALHSLLLRLLTQDQGQGGAPLPEPSP"}}, "key": {"[1]": {"target": "T1, oxidized phospholipid degrading enzyme (purified enzyme) (Bos taurus, UniProt Q29460)", "T1 construct": "from tissue; host or cells: bovine brain gray matter, soluble cytoplasmic fraction", "T1 sequence (Q29460 2-232)": "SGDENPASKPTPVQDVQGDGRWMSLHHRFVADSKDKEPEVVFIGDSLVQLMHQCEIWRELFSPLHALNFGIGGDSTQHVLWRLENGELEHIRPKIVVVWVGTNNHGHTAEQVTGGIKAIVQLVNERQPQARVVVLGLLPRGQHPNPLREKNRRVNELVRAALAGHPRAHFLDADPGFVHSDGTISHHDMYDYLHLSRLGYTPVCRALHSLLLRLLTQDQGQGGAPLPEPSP", "T1 sequence (P68401 2-229 partner limits assumed)": "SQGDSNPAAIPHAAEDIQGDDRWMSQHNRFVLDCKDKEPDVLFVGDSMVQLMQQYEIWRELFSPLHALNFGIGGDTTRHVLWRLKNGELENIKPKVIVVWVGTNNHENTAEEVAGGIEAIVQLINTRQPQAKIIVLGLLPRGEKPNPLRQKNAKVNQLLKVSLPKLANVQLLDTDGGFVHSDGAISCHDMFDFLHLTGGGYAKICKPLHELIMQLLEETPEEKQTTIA", "T1 sequence (P43033 2-410 A26E/E154Q partner limits assumed)": "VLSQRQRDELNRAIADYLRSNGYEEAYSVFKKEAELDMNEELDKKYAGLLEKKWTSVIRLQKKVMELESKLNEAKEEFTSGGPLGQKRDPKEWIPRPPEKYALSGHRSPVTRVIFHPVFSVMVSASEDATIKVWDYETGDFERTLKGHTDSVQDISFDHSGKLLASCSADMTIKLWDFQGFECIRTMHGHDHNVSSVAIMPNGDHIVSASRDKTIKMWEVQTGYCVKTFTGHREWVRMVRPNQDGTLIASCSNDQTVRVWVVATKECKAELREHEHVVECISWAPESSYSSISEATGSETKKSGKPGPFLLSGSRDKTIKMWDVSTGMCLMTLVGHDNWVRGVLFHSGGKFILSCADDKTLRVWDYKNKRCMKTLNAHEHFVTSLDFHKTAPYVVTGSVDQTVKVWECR", "test": "biochemical", "set-up": "species or system bovine"}, "[2]": {"system": "oxidized phospholipid degrading enzyme", "test": "Influence of calcium ions on the enzyme activity", "assay_type": "biochemical, bovine", "settings": "4 mM calcium chloride", "method": "Measurement of the oxidized phospholipid degrading enzyme by using PAF was conducted in a similar manner to Reference Example 2. Namely, Tris-HCl buffer (final concentration: 50 mM, pH 7.4) which contained as a substrate 20 nmol (6,000 dpm) of the labeled PAF obtained in step (a) was added with 5 mM EDTA or 4 mM CaCl2 as needed, to which the sample (enzyme source) to be measured was added to give a total volume of 250 μl.\n(§1) They were mixed in a test tube over ice and then incubated at 37° C. for 30 minutes. Thereafter, 2.5 ml of a chloroform-methanol (4:1) mixture were added to terminate the reaction. Subsequent to addition of 0.25 ml of water, the resulting mixture was vigorously mixed for 5 minutes by a vortex stirrer and then centrifuged for 5 minutes at 3,000 rpm to separate it into two layers. From the upper layer, 600 μl were collected, in which 3 ml of \"Clearsol I\" (product of NACALAI TESQUE INC.) were mixed. The radioactivity was measured by a liquid scintillation counter. From the intensity of the radioactivity, the amount of acetic acid formed as a result of 2-hydrolysis was calculated to determine the enzyme activity.\nThe enzyme activity was measured by the measuring method of Reference Example 3 except that 4 mM CaCl2 was added instead of 5 mM of EDTA."}, "[3]": {"target": "T1, oxidized phospholipid degrading enzyme (purified enzyme)", "test": "Substrate specificity of the purified enzyme", "assay_type": "biochemical, bovine", "method": "as §1, with “560 μl” for “2.5 ml”, “(1:1)” for “(4:1)”, “After” for “Subsequent to addition of 0.25 ml of water,”, “stirrer, the mixture was” for “stirrer and then”, “300” for “600”, “the dicarboxylic” for “acetic”\nNamely, Tris-HCl buffer (final concentration: 50 mM, pH 7.4) which contained as a substrate 20 nmol (6,000 dpm) of the labeled PAF obtained in step (a) was added with 5 mM EDTA or 4 mM CaCl2 as needed, to which the sample (enzyme source) to be measured was added to give a total volume of 250 μl.\nas §1"}, "[4]": {"target": "T2, 30 kDa-29 kDa complex without the 45 kDa subunit (bovine)", "T2 chain 1": "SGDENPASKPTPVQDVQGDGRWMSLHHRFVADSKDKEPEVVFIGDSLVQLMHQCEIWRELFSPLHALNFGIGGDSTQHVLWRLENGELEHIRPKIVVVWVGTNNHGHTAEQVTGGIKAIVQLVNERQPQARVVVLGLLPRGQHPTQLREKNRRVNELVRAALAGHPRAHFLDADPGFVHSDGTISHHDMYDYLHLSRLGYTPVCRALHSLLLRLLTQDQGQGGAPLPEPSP", "T2 chain 2": "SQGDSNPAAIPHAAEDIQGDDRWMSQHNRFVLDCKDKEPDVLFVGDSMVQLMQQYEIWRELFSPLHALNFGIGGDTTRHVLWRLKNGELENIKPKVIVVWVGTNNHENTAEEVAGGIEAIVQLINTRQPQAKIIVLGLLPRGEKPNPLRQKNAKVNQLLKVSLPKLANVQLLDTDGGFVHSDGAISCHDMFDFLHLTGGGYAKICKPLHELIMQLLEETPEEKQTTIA", "test": "co-purification of the native enzyme; gel filtration and SDS-PAGE"}, "[5]": {"target": "T3, 30 kDa subunit of the oxidized phospholipid degrading enzyme (bovine)", "T3 chain": "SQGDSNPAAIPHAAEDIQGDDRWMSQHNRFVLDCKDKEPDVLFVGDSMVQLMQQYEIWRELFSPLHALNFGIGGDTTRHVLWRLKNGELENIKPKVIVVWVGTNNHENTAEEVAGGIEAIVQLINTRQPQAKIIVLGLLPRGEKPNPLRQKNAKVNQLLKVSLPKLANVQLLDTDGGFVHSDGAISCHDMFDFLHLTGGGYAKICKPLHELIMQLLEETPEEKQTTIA", "test": "heparin Sepharose or sulfated Cellulofine column treatment of the native enzyme", "method": "Against buffer A, 15 ml of the roughly purified fraction obtained in step (e) of Example 1 were dialyzed. The solution so dialyzed was then applied to a column (1×5 cm) of \"heparin Sepharose\" (product of Pharmacia AB) which had been equilibrated with buffer A, whereby about 80% of the enzyme activity passed through the column without adsorption. When the column was washed with buffer A subsequent to the passage of the dialyzed solution, the activity was gradually eluted with tailing.\nAfter the column was washed with about 30 ml of buffer A, the enzyme was eluted with a 30 ml linear gradient of NaCl (0M to 1.5M) in buffer A. The enzyme activity was eluted around about 0.3M NaCl concentration. […] Further, the fractions eluted around about 0.6M NaCl concentration gave only one spot at 45 kDa."}, "[6]": {"settings": "in the presence of 4 mM CaCl2, method of Dole et al."}}, "data": [{"molecule": "O=C(CBr)c1ccc(Br)cc1", "note": "[BPB, p-bromophenacyl bromide]", "values": [{"measurement": "Inhibition of enzyme reactions (in words)", "setting": "[1]", "value": "inhibited"}, {"measurement": "Inhibition of the purified enzyme (in words, summary of Table 3)", "setting": "[1]", "value": "inhibited"}, {"measurement": "inhibition at 100 µM", "setting": "[1]", "value": 20, "unit": "%"}, {"measurement": "inhibition at 1000 µM", "setting": "[1]", "value": 97, "unit": "%"}]}, {"molecule": "[Ca+2].[Cl-].[Cl-]", "note": "[CaCl2, calcium chloride]", "values": [{"measurement": "Enhancement of enzyme activity (in words)", "setting": "[2]", "value": "slightly enhanced"}]}, {"molecule": "NC(=O)CI", "note": "[IAM, iodoacetamide]", "values": [{"measurement": "Inhibition of enzyme reactions (in words)", "setting": "[1]", "value": "not inhibited"}, {"measurement": "Inhibition of the purified enzyme (in words, summary of Table 3)", "setting": "[1]", "value": "not inhibited at all"}, {"measurement": "inhibition at 100 µM", "setting": "[1]", "value": 0, "unit": "%"}, {"measurement": "inhibition at 1000 µM", "setting": "[1]", "value": 0, "unit": "%"}]}, {"molecule": "CCCCCCCCCCCCCCCC(=O)OC[C@@H](O)COP(=O)([O-])OCC[N+](C)(C)C", "note": "[Lyso PC, 1-palmitoyl-sn-glycero-3-phosphocholine]", "values": [{"measurement": "Degrading activity / hydrolysis by the enzyme (in words)", "setting": "[3]", "value": "absolutely no degrading activity"}, {"measurement": "Specific activity", "setting": "[3]; [6]", "value": "Not degraded"}]}, {"molecule": "CCCCCCCCCCCCCCCCOC[C@H](COP(=O)([O-])OCC[N+](C)(C)C)OC(C)=O", "note": "[PAF, 1-hexadecyl-2-acetyl-sn-glycero-3-phospho-choline]", "values": [{"measurement": "Degrading activity / hydrolysis by the enzyme (in words)", "setting": "[3]", "value": "shows degrading activity"}, {"measurement": "Specific activity", "setting": "[3]; method of Reference Examples 2 and 3", "value": 1.45, "unit": "nmol/min/mg"}]}, {"molecule": "phosphatidylethanolamine [PE]", "values": [{"measurement": "Degrading activity / hydrolysis by the enzyme (in words)", "setting": "[3]", "value": "does not show any degrading activity"}, {"measurement": "Specific activity", "setting": "[3]; [6]", "value": "Not degraded"}]}, {"molecule": "B1", "values": [{"measurement": "binding result", "setting": "[4]", "value": "binds"}]}, {"molecule": "B2", "values": [{"measurement": "binding result", "setting": "[5]", "value": "binds"}]}]}
